Test results: publication PMC5384220 (Nature Communications, 2017)
Entries after “also recorded” stand apart in the source; their conditions may differ.

Biological target: T1, FLAG-KDM4E (Homo sapiens, UniProt B2RXH2)
T1 construct: expressed in transfected cells; host or cells: U2OS
T1 sequence (B2RXH2 1-506): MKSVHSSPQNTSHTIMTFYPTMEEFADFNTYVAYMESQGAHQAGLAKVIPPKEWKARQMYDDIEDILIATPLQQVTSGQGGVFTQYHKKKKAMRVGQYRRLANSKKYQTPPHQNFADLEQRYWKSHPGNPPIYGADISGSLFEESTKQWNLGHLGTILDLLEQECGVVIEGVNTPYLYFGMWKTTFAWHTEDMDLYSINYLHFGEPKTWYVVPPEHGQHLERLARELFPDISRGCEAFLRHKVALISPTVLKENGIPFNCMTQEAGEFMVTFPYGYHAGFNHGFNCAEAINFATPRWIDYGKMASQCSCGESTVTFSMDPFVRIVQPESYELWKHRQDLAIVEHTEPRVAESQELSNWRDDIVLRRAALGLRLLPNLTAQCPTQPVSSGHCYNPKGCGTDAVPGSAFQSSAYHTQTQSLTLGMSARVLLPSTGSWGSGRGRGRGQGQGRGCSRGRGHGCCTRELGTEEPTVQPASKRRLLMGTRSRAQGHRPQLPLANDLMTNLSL
Assay: CETSA, FLAG-KDM4E in U2OS cells
Assay type: cell-based
Conditions: 0.5 µM
Description: For CETSA melting curve experiments, 80% confluent U2OS cells in a 75 cm^2 flask were transfected with a plasmid encoding full-length Flag-tagged KDM4A1–1,064 (ref. [15]) or KDM4E1–506 (ref. [20]) using Lipofectamine 2000 (Thermo Scientific) and incubated for 4 h. The cells were washed with PBS buffer and media replaced with fresh DMEM with 10% FBS, supplemented with cyclic peptides in DMSO (0.1% DMSO final). Cell dosing was carried out for 20 h at 37 °C. Control cells were dosed only with DMSO. The cells were trypsinized and washed thrice with PBS, by centrifugation (300 g, 3 min, 4 °C). Cells were re-suspended in PBS supplemented with Complete Protease inhibitor cocktail (Sigma) and divided into 8–10 aliquots (100 μl) containing equal cell numbers in PCR tubes. For ITDRF CETSA experiments, approximately 6 × 10^6 cells were seeded evenly into nine 25 cm^2 flask and adhered before transfection. After 4 h of incubation, the cells were washed with PBS buffer and the media replaced with fresh DMEM with 10% FBS supplemented with cyclic peptides at a final concentration between 0 and 4,000 nM (0.1% DMSO final). Cells were trypsinized and washed thrice with PBS using centrifugation (300 g, 3 min, 4 °C). Cells were re-suspended in PBS supplemented with protease inhibitor cocktail (Sigma), aliquots (100 μl) containing equal cell numbers in PCR tubes were prepared. […] For ITDRF, tubes were incubated at approximately the Tm of the proteins of interest as determined by CETSA melting curve experiments, for example, 55 °C (Tm for actin) for 3 min, followed by room temperature for 3 min. […]
The samples (supernatant) were run on SDS–PAGE (NuPage Novex Bis-Tris 4–12% polyacrylamide gels with NuPAGE MES SDS running buffer (Thermo Scientific)) and transferred onto nitrocellulose membranes using either the iBlot blotting system. FLAG-KDM4A levels were determined by immunoblotting using a monoclonal mouse anti-FLAG primary antibody (F1804, Sigma), at a dilution of 1: 1,000 in PBS-T buffer containing Seablock Reagent Salmon Plasma (2% v/v, Calbiochem). […]

DYVYNTRSGWRWYTC [CP2]
CETSA stabilization / Tm shift of FLAG-KDM4E: No significant changes in the Tm shift; also recorded: not stabilized
